The values that follow come from patent publication US20040039059A1, “Use of n,n' -dibenzyl ethylene diamine-n, n'- diacetic acid derivatives as anti-pollution agent” (priority 2000, published 2004).

This series concerns human keratinocytes. Description: Neutral red incorporation test: cytotoxicity of cadmium chloride on human keratinocytes in culture, with or without protecting agent. The format is cell-based. Particulars: for protection of cells against the toxicity of cadmium chloride (in words): protecting agent at 50 and 100 μM. The protocol: The cytotoxic effect of cadmium on human keratinocytes in culture was evaluated by means of a technique of measuring the cell viability, known as the neutral red incorporation test (E. Borenfreund and J. A. Puerner, Tissue Culture Methods. 1984, 9: 7-9).
The study was performed on a monolayer culture of human keratinocytes obtained from plastic surgeries. The cells are inoculated on D-3 into 96-well culture dishes at a rate of 25 000 cells/cm^2 in 100 μl of culture medium (calf serum-free defined medium, NR2, Biofluids). The incubations are performed in an incubator at 37° C. under a humid atmosphere enriched with 5% CO2.
The cells are treated for 24 hours with increasing concentrations (0, 10, 25, 50, 75, 100, 150 and 200 μM) of cadmium chloride (CdCl2) alone, so as to determine its cytotoxicity. In parallel, a treatment is performed under the same conditions, but in the presence of N,N′-bis(3,4,5-trimethoxybenzyl)ethylenediamine-N,N′-diacetic acid (100 and 50 μm). The incubations are performed in an incubator at 37° C., [lacuna] % CO2 under a humid atmosphere.
At the end of the period of contact, a neutral red incorporation test is performed and the results are read on a spectrophotometer at 550 nm.
To do this, the cells are rinsed with PBS buffer in order to remove the treatment solutions; 100 μl per well of a 0.5 mg/ml neutral red solution are added to the culture medium; the mixture is incubated at 37° C. and 5% CO2, under a humid atmosphere, for three hours; the resulting mixture is rinsed with PBS; fixing is performed with formaldehyde/calcium solution for one minute; the neutral red is extracted with 100 μl/well of ethanol-acetic acid solution; the optical density is read on the spectrophotometer at 550 nm and the CdCl2 concentration, resulting in a 50% reduction in viability=IC-50, is calculated.

The structures appear in SMILES notation. pIC50: −log10 of the molar value.

On to `COc1cc(CN(CCN(CC(=O)O)Cc2cc(OC)c(OC)c(OC)c2)CC(=O)O)cc(OC)c1OC` [N,N′-bis(3,4,5-trimethoxybenzyl)ethylenediamine-N,N′-diacetic acid], for which the “protection of cells against the toxicity of cadmium chloride (in words)” value (human keratinocytes) was “significantly protects the cells against the toxicity of this pollutant” and the “protection of cells against the toxicity of cadmium chloride (in words)” value (human keratinocytes, listed as N,N′-dimethylethylenediamine-N,N′-diacetic acid) is given as “cytotoxicity of cadmium chloride decreases significantly”. Also, the “factor by which the cytotoxicity of cadmium chloride decreases” value reads like this: (protecting agent at 50 μM) 2.3; (protecting agent at 100 μM) 3.1.

Turning to `[Cl][Cd][Cl]` [cadmium chloride, reference compound], for the setting “CdCl2 alone, 24 hours, human keratinocytes, neutral red, concentration giving 50% drop in cell viability, read-out: IC.50 of cadmium chloride without protecting agent (Mean ± SEM)”, the pIC50 is 4.41.
